Tests used:
Assay type in all cases: in vivo
Conditions in all cases: 1000 g/h, evaluated after 13 days, five point scale
[1] = tested on: Amaranthus retoflexus (AMARE); assay: Glasshouse herbicide test, post-emergence
Procedure: (§1) Seeds of a variety of test species are sown in standard soil in pots Alopecurus myosuroides (ALOMY), Amaranthus retoflexus (AMARE), Setaria faberi (SETFA), Echinochloa crus-galli (ECHCG), Lolium perenne (LOLPE), Solanum nigrum (SOLNI), Stellaria media (STEME) and Digitaria sanguinalis (DIGSA). After cultivation for one day (pre-emergence) or after 8 days cultivation (post-emergence) under controlled conditions in a glasshouse (at 24/16° C., day/night; 14 hours light; 65% humidity), the plants are sprayed with an aqueous spray solution derived from the formulation of the technical active ingredient in acetone/water (50:50) solution containing 0.5% Tween 20 (polyoxyethelyene sorbitan monolaurate, CAS RN 9005-64-5). Compounds are applied at 1000 g/h. The test plants are then grown in a glasshouse under controlled conditions in a glasshouse (at 24/16° C., day/night; 14 hours light; 65% humidity) and watered twice daily. After 13 days for pre and post-emergence, the test is evaluated for the percentage damage caused to the plant. The biological activities are shown in the following table on a five point scale (5=80-100%; 4=60-79%; 3=40-59%; 2=20-39%; 1=0-19%).

Stellaria media (STEME) [2] = assay: Glasshouse herbicide test, post-emergence
Procedure: as §1

[3] = tested on: Digitaria sanguinalis (DIGSA); assay: Glasshouse herbicide test, post-emergence
Procedure: as §1

Lolium perenne (LOLPE) [4] = assay: Glasshouse herbicide test, post-emergence
Procedure: as §1

[5] = tested on: Amaranthus retoflexus (AMARE); assay: Glasshouse herbicide test, pre-emergence
Procedure: as §1

Stellaria media (STEME) [6] = assay: Glasshouse herbicide test, pre-emergence
Procedure: as §1

[7] = tested on: Digitaria sanguinalis (DIGSA); assay: Glasshouse herbicide test, pre-emergence
Procedure: as §1

Lolium perenne (LOLPE) [8] = assay: Glasshouse herbicide test, pre-emergence
Procedure: as §1

[9] = tested on: Echinochloa crus-galli (ECHCG); assay: Glasshouse herbicide test, post-emergence
Procedure: as §1

Setaria faberi (SETFA) [10] = assay: Glasshouse herbicide test, post-emergence
Procedure: as §1

IPOHE [11] = assay: Glasshouse herbicide test, post-emergence
Procedure: [The procedure below names another species; the source lists this species under the same test.] as §1

Solanum nigrum (SOLNI) [12] = assay: Glasshouse herbicide test, post-emergence
Procedure: as §1

[13] = tested on: Alopecurus myosuroides (ALOMY); assay: Glasshouse herbicide test, post-emergence
Procedure: as §1

[14] = tested on: Echinochloa crus-galli (ECHCG); assay: Glasshouse herbicide test, pre-emergence
Procedure: as §1

Setaria faberi (SETFA) [15] = assay: Glasshouse herbicide test, pre-emergence
Procedure: as §1

IPOHE [16] = assay: Glasshouse herbicide test, pre-emergence
Procedure: [The procedure below names another species; the source lists this species under the same test.] as §1

Solanum nigrum (SOLNI) [17] = assay: Glasshouse herbicide test, pre-emergence
Procedure: as §1

[18] = tested on: Alopecurus myosuroides (ALOMY); assay: Glasshouse herbicide test, pre-emergence
Procedure: as §1

Row | SMILES | percentage damage caused to the plant, AMARE, POST Application [1] | percentage damage caused to the plant, STEME, POST Application (Stellaria media (STEME) [2]) | percentage damage caused to the plant, DIGSA, POST Application [3] | percentage damage caused to the plant, LOLPE, POST Application (Lolium perenne (LOLPE) [4]) | percentage damage caused to the plant, AMARE, PRE Application [5] | percentage damage caused to the plant, STEME, PRE Application (Stellaria media (STEME) [6]) | percentage damage caused to the plant, DIGSA, PRE Application [7] | percentage damage caused to the plant, LOLPE, PRE Application (Lolium perenne (LOLPE) [8]) | percentage damage caused to the plant, AMARE, POST Application ([1]; second table) | percentage damage caused to the plant, ECHCG, POST Application [9] | percentage damage caused to the plant, SETFA, POST Application (Setaria faberi (SETFA) [10]) | percentage damage caused to the plant, IPOHE, POST Application (IPOHE [11]) | percentage damage caused to the plant, SOLNI, POST Application (Solanum nigrum (SOLNI) [12]) | percentage damage caused to the plant, ALOMY, POST Application [13] | percentage damage caused to the plant, AMARE, PRE Application ([5]; second table) | percentage damage caused to the plant, ECHCG, PRE Application [14] | percentage damage caused to the plant, SETFA, PRE Application (Setaria faberi (SETFA) [15]) | percentage damage caused to the plant, IPOHE, PRE Application (IPOHE [16]) | percentage damage caused to the plant, SOLNI, PRE Application (Solanum nigrum (SOLNI) [17]) | percentage damage caused to the plant, ALOMY, PRE Application [18]
1 | Cn1cnnc1NC(=O)c1ccc(S(C)(=O)=O)c(COCC(F)(F)F)c1Cl [Compound 1.001] | 5 (5=80-100%) | 5 (5=80-100%) | 5 (5=80-100%) | 1 (1=0-19%) | 3 (3=40-59%) | 1 (1=0-19%) | 1 (1=0-19%) | 1 (1=0-19%) | – | – | – | – | – | – | – | – | – | – | – | –
2 | Cc1ccc(C(F)(F)F)c(C(=O)Nc2nncn2C)c1 [Compound 2.006] | – | – | – | – | – | – | – | – | 2 (2=20-39%) | 1 (1=0-19%) | 1 (1=0-19%) | 2 (2=20-39%) | 4 (4=60-79%) | 1 (1=0-19%) | 2 (2=20-39%) | 1 (1=0-19%) | 1 (1=0-19%) | 3 (3=40-59%) | 3 (3=40-59%) | 1 (1=0-19%)
